Experimental data taken from patent publication US5972894A, “Peptides having potassium channel opener activity” (Cytran, Inc., priority 1997, dated 1999).
Residues, ends and D or L forms follow the SMILES beside them.

Legend:
rats [1] = assay: CPK activity in blood serum 1 hour after coronary occlusion; assay type: in vivo; conditions: for CPK Activity in blood serum: 1 hour after coronary occlusion
Experimental: White random-bred male rats weighing approximately 200 g were anesthetized using a light ether administration and then immobilized and artificially ventilated. […] Immediately after ligation, a test substance, positive, control substance, or negative control substance (described below) was administered to a rat through a catheterized femoral vein. Each dose of each test substance or positive or negative control substance was administered to an experimental or control group of 9 test rats. In this study, GE and VT served as test substances, propranolol served as the positive control substance, and physiological saline served as the negative control substance. Each test rat in an experimental group was given a dose of either 0.1, 1.0, or 10.0 milligram GE per kilogram of body weight of the subject animal (mg/kg) or 0.1, 1.0, or 10.0 milligram VT per kilogram of body weight of the animal. Each animal of the positive control group received an intravenous dose of 0.5 mg of β-adrenergic blocking agent, propranolol (Obzidan, Germed, Germany) per kilogram of body weight. Propranolol is commonly used to manage cardiac arrhythmia and there is some evidence that the agent may reduce the extent of ischemic damage to the heart. […] Each animal of the negative control group received physiological saline.
One hour after initiation of the coronary artery occlusion, each test animal was sacrificed, its blood was collected, and the CPK activity in its blood serum was measured. CPK activity was determined by using a standard biochemical method, such as that commercially available from the Lachema Company (Czechia) in its test kit, and by following the manufacturer's process instructions included in the package insert.
As a supplementary control for the possible trauma caused by the surgical procedure, a group of 9 sham-operated rats was included in the study. These test animals were subjected to chest dissection, but not to coronary artery occlusion. These "sham-operated" animals were not treated with any test or control substances and were euthanized 1 hour after surgery. Their blood was then collected for determination of CPK activity.

rats [2] = assay: Early ischemic myocardial arrhythmias after coronary artery ligation; assay type: in vivo; conditions: for Number of Ventricular Extrasystoles / Overall Duration of Ventricular Tachycardia: 30 min after coronary occlusion
Experimental: White random-bred male rats weighing 200 g were given light ether anesthesia and were then immobilized and artificially ventilated. The descending branch of the left coronary artery of each rat was ligated. Immediately following ligation, a test or control substance was administered to each rat through the catheterized femoral vein, and an ECG recording was initiated (standard lead II) and maintained for the next 30 minutes.
GE and VT served as test substances and were administered to animals in the respective test groups at doses of 0.1, 1.0, and 10.0 mg/kg. The β-adrenergic blocking agent, propranolol (Obzidan, Germed, Germany), served as the positive control substance and was administered intravenously to each animal in the positive control group at a dose of 0.5 mg/kg. Physiological saline served as the negative control substance and was administered intravenously to animals in the negative control group. Each dose of each test or control substance was tested separately on a group of nine animals.
The following parameters were evaluated based upon the ECG recordings: (i) the number of ventricular extrasystoles that occurred within a 30-minute observation period following coronary occlusion; (ii) the overall cumulative duration of ventricular tachycardias (i.e., the summation of duration of individual paroxysmal ventricular rhythm disturbances in seconds) occurring within the 30-minute observation period; and (iii) the overall duration (in seconds) of the ventricular fibrillations occurring within the 30-minute observation period. The data were processed electronically and statistical comparisons were made between the values obtained from the animals in the experimental test groups and those in the different respective control groups.

Isolated Rat Heart = assay: Inotropic function of normal isolated rat heart, Langendorff perfusion
Source text: Rat heart specimens were obtained surgically from white random-bred male rats weighing approximately 250 g. The hearts were established in culture using retrograde heart perfusion according to the Langendorff method performed with a standard oxygenated (95% O2 and 5% CO2) Krebs-Henseleit solution through a glass aorta cannula. The retroperfusion pressure forces the aortic valves shut. In this way, the oxygenated solution passed only through the coronary vasculature of the heart such that both ventricles remain effectively empty. Perfusion conditions: An average constant perfusate flow rate of 15 to 25 ml/min was maintained with a constant perfusate pressure of 80 cm H2 O. Pressure Measurements: A latex balloon catheter connected with a pressure transducer ([…], Sweden) was inserted into the left ventricle of the heart to measure parameters of the inotropic function of the heart. The intraventricle pressure variation curve for the left ventricle was recorded with a polygraph. Experimental Protocol: GE and VT served as the test substances. After a 30-minute adaptation of the heart to the organ culture perfusion conditions, a set of basal (control) measurements was taken, as described in (i) through (v) below. […] See GOODMAN […] THE PHARMACOLOGICAL BASIS OF THERAPEUTICS 160 (Goodman et al., eds., 7th ed. 1985), incorporated herein by reference in its entirety for all purposes. Each dose of each respective test or reference substance was tested on four different rat hearts. The inotropic functions of each of the four rat hearts were evaluated by measuring: (i) the systolic pressure in the left ventricle ([…] diastolic pressure in the left ventricle ([…] evolving pressure (Pev. =[…]); (iv) the maximal rate of increase of left ventricle pressure (+dp/dtmax mm Hg/sec); and (v) the maximal rate of decrease of left ventricle pressure (-dp/dtmax mm Hg/sec). In addition, the heart rate (HR) of each heart was determined from the pressure variation recordings made of the left ventricle pressure.

Compound: NCC(=O)N[C@@H](CCC(=O)O)C(=O)O [GE, L-Glycyl-L-Glutamic acid] (H-Gly-Glu-OH)
- CPK Activity in blood serum (rats [1]; 0.1 mg/kg i.v.): 0.062 (±0.013) mcCat/L
- CPK Activity in blood serum (rats [1]; 1.0 mg/kg i.v.): 0.056 (±0.014) mcCat/L
- CPK Activity in blood serum (rats [1]; 10.0 mg/kg i.v.): 0.110 (±0.024) mcCat/L
- extent of induced myocardial ischemic lesions (CPK in serum vs negative control) (rats [1]; 0.1, 1.0, and 10.0 milligram): diminish the extent of induced myocardial ischemic lesions
- Number of Ventricular Extrasystoles (rats [2]; 0.1 mg/kg i.v.): 25.22
- Overall Duration of Ventricular Tachycardia (rats [2]; 0.1 mg/kg i.v.): 38.67 s
- Number of Ventricular Extrasystoles (rats [2]; 1.0 mg/kg i.v.): 116.22
- Overall Duration of Ventricular Tachycardia (rats [2]; 1.0 mg/kg i.v.): 93.17 s
- Number of Ventricular Extrasystoles (rats [2]; 10.0 mg/kg i.v.): 47.78
- Overall Duration of Ventricular Tachycardia (rats [2]; 10.0 mg/kg i.v.): 51.78 s
- effect on overall duration of ventricular tachycardias (rats [2]; all of the tested doses): reduced the overall duration of ventricular tachycardias
- effect on inotropic function and heart rate of normal heart (Isolated Rat Heart; 10, 100, 1000 μg): neither GE nor VT had a significant effect
- +dp/dtmax % of Basal Level (Isolated Rat Heart; dose 10 mg (mg = microgram)): 102%
- +dp/dtmax Subst. Level (Isolated Rat Heart; dose 10 mg (mg = microgram)): 1750 mm Hg/sec
- -dp/dtmax % of Basal Level (Isolated Rat Heart; dose 10 mg (mg = microgram)): 94%
- -dp/dtmax Subst. Level (Isolated Rat Heart; dose 10 mg (mg = microgram)): 985 mm Hg/sec
- HR % of Basal Level (Isolated Rat Heart; dose 10 mg (mg = microgram)): 99%
- HR abs, Subst. Level (Isolated Rat Heart; dose 10 mg (mg = microgram)): 202 hb/min
- Pdiast % of Basal Level (Isolated Rat Heart; dose 10 mg (mg = microgram)): 95%
- Pdiast abs, Subst. Level (Isolated Rat Heart; dose 10 mg (mg = microgram)): 9 mm Hg
- Pev % of Basal Level (Isolated Rat Heart; dose 10 mg (mg = microgram)): 102%
- Pev Subst. Level (Isolated Rat Heart; dose 10 mg (mg = microgram)): 94 mm Hg
- Psyst % of Basal Level (Isolated Rat Heart; dose 10 mg (mg = microgram)): 102%
- Psyst abs, Subst. Level (Isolated Rat Heart; dose 10 mg (mg = microgram)): 104 mm Hg
- +dp/dtmax % of Basal Level (Isolated Rat Heart; dose 100 mg (mg = microgram)): 100%
- +dp/dtmax Subst. Level (Isolated Rat Heart; dose 100 mg (mg = microgram)): 1723 mm Hg/sec
- -dp/dtmax % of Basal Level (Isolated Rat Heart; dose 100 mg (mg = microgram)): 99%
- -dp/dtmax Subst. Level (Isolated Rat Heart; dose 100 mg (mg = microgram)): 1055 mm Hg/sec
- HR % of Basal Level (Isolated Rat Heart; dose 100 mg (mg = microgram)): 100%
- HR abs, Subst. Level (Isolated Rat Heart; dose 100 mg (mg = microgram)): 203 hb/min
- Pdiast % of Basal Level (Isolated Rat Heart; dose 100 mg (mg = microgram)): 100%
- Pdiast abs, Subst. Level (Isolated Rat Heart; dose 100 mg (mg = microgram)): 11 mm Hg
- Pev % of Basal Level (Isolated Rat Heart; dose 100 mg (mg = microgram)): 99%
- Pev Subst. Level (Isolated Rat Heart; dose 100 mg (mg = microgram)): 88 mm Hg
- Psyst % of Basal Level (Isolated Rat Heart; dose 100 mg (mg = microgram)): 99%
- Psyst abs, Subst. Level (Isolated Rat Heart; dose 100 mg (mg = microgram)): 99 mm Hg
- +dp/dtmax % of Basal Level (Isolated Rat Heart; dose 1000 mg (mg = microgram)): 94%
- +dp/dtmax Subst. Level (Isolated Rat Heart; dose 1000 mg (mg = microgram)): 1618 mm Hg/sec
- -dp/dtmax % of Basal Level (Isolated Rat Heart; dose 1000 mg (mg = microgram)): 96%
- -dp/dtmax Subst. Level (Isolated Rat Heart; dose 1000 mg (mg = microgram)): 980 mm Hg/sec
- HR % of Basal Level (Isolated Rat Heart; dose 1000 mg (mg = microgram)): 102%
- HR abs, Subst. Level (Isolated Rat Heart; dose 1000 mg (mg = microgram)): 198 hb/min
- Pdiast % of Basal Level (Isolated Rat Heart; dose 1000 mg (mg = microgram)): 100%
- Pdiast abs, Subst. Level (Isolated Rat Heart; dose 1000 mg (mg = microgram)): 10 mm Hg
- Pev % of Basal Level (Isolated Rat Heart; dose 1000 mg (mg = microgram)): 91%
- Pev Subst. Level (Isolated Rat Heart; dose 1000 mg (mg = microgram)): 85 mm Hg
- Psyst % of Basal Level (Isolated Rat Heart; dose 1000 mg (mg = microgram)): 92%
- Psyst abs, Subst. Level (Isolated Rat Heart; dose 1000 mg (mg = microgram)): 94 mm Hg
